# Patent publication US20250009742A1 (priority 2021, published 2025)
# Test system: intracellular HBV DNA
# Test: Real-time PCR for intracellular HBV DNA in HepAD38 cells
# Type: cell-based
# Conditions: 65 hours treatment, read-out: IC50
# Experimental: HepAD38 cells were cultured in DMEM medium (Welgene) supplemented with 200 unit/mL penicillin, 200 μg/mL streptomycin, and 10% FBS. During maintenance and passage, the cells were cultured together with 0.4 μg/mL tetracycline. Two days before the treatment with compounds for inducing HBV replication was started, the medium was replaced with a tetracycline-free complete growth medium. […]
# HepAD38 cells were treated with a compound for 65 hours and then recovered, and intracellular HBV DNA was extracted therefrom according to the protocol in the DNeasy Blood & Tissue Kit (Qiagen). The primers and probes used to quantify HBV DNA were 5′-[…]-3′, 5′-[…]-3′, and 5′-/56-FAM/TGT CCT GGT/ZEN/TAT CGC TGG ATG TGT CT/3IABkFQ/-3′. The HBV DNA was amplified by real-time PCR assay using LightCycler 480 (Roche) (J. Virol., 2018, 92(16):e00339-18). All of the processes were confirmed in duplicate.
row,Compound,IC50
1,3-(6-fluoropyridin-3-yl)-1-(2-methoxypyrimidin-5-yl)-1-((5-(trifluoromethyl)-1H-pyrazol-3-yl)methyl)urea [Example 184],250 nM

# Same assay, conditions: Hepatitis B virus, HePAD38, 65 h, 65 hours treatment
row,Compound,IC50
1,"COc1ncc(N(Cc2cc(C(F)(F)F)[nH]n2)C(=O)Nc2ccc(F)c(Cl)n2)cn1 [Example 106, 3-(6-chloro-5-fluoropyridin-2-yl)-1-(2-methoxypyrimidin-5-yl)-1-((5-(trifluoromethyl)-1H-pyrazol-3-yl)methyl)urea]",120 nM
2,"COc1ccc(N(Cc2n[nH]c(C(F)(F)F)c2CCO)C(=O)Nc2ccc(F)c(Cl)c2)cn1 [Example 86, 3-(3-chloro-4-fluorophenyl)-1-((4-(2-hydroxyethyl)-5-(trifluoromethyl)-1H-pyrazol-3-yl)methyl)-1-(6-methoxypyridin-3-yl)urea]",16 nM
3,"COc1ncc(N(Cc2cc(C(F)(F)F)[nH]n2)C(=O)NC23CC(F)(C2)C3)cn1 [Example 185, 3-(3-fluorobicyclo[1.1.1]pentan-1-yl)-1-(2-methoxypyrimidin-5-yl)-1-((5-(trifluoromethyl)-1H-pyrazol-3-yl)methyl)urea]",> 1100 nM
4,"COc1ncc(N(Cc2cc(C(F)(F)F)[nH]n2)C(=O)NC23CC(C2)C3)cn1 [Example 1, 3-(bicyclo[1.1.1]pentan-1-yl)-1-(2-methoxypyrimidin-5-yl)-1-((5-(trifluoromethyl)-1H-pyrazol-3-yl)methyl)urea]",> 1100 nM
5,"CC(=O)c1cc(N(Cc2n[nH]c3c2CCOC3)C(=O)Nc2ccc(F)c(Cl)c2)ccn1 [Example 22, 1-(2-acetylpyridin-4-yl)-3-(3-chloro-4-fluorophenyl)-1-((1,4,5,7-tetrahydropyrano[3,4-c]pyrazol-3-yl)methyl)urea]",> 1100 nM
6,"COc1ncc(N(Cc2cc(C(F)F)[nH]n2)C(=O)Nc2ccc(F)c(Cl)c2)cn1 [Example 84, 3-(3-chloro-4-fluorophenyl)-1-((5-(difluoromethyl)-1H-pyrazol-3-yl)methyl)-1-(2-methoxypyrimidin-5-yl)urea]",17 nM
7,"CC12CC(N(Cc3cc(C(F)(F)F)[nH]n3)C(=O)Nc3ccc(F)c(Cl)c3)(C1)C2 [Example 27, 3-(3-chloro-4-fluorophenyl)-1-(3-methylbicyclo[1.1.1]pentan-1-yl)-1-((5-(trifluoromethyl)-1H-pyrazol-3-yl)methyl)urea]",160 nM
8,"COc1cc(N(Cc2cc(C(F)(F)F)[nH]n2)C(=O)Nc2ccc(F)c(C(F)F)c2)cnn1 [Example 203, 3-(3-(difluoromethyl)-4-fluorophenyl)-1-(6-methoxypyridazin-4-yl)-1-((5-(trifluoromethyl)-1H-pyrazol-3-yl)methyl)urea]",13 nM
9,"N#Cc1cc(N(Cc2n[nH]c3c2COCC3)C(=O)Nc2ccc(F)c(Cl)c2)ccn1 [Example 123, 3-(3-chloro-4-fluorophenyl)-1-(2-cyanopyridin-4-yl)-1-((1,4,6,7-tetrahydropyrano[4,3-c]pyrazol-3-yl)methyl)urea]",249 nM
10,"COc1ncc(N(Cc2cc(C(F)(F)F)[nH]n2)C(=O)Nc2cnc(SC)nc2)cn1 [Example 218, 1-(2-methoxypyrimidin-5-yl)-3-(2-(methylthio)pyrimidin-5-yl)-1-((5-(trifluoromethyl)-1H-pyrazol-3-yl)methyl)urea]",> 1100 nM
11,"COc1ncc(N(Cc2cc(C(F)(F)F)[nH]n2)C(=O)Nc2ccnc(C#N)c2F)cn1 [Example 158, 3-(2-cyano-3-fluoropyridin-4-yl)-1-(2-methoxypyrimidin-5-yl)-1-((5-(trifluoromethyl)-1H-pyrazol-3-yl)methyl)urea]",230 nM
12,"COc1ncc(N(Cc2n[nH]c(C(F)F)c2CC(C)(C)O)C(=O)Nc2ccc(F)c(C(F)F)c2)cn1 [Example 208, 1-((5-(difluoromethyl)-4-(2-hydroxy-2-methylpropyl)-1H-pyrazol-3-yl)methyl)-3-(3-(difluoromethyl)-4-fluorophenyl)-1-(2-methoxypyrimidin-5-yl)urea]",> 1100 nM
